Structures can show the parent of a compound that is named as a salt. Where two headings read alike, the source gives them in different places.
Molecular target: T1, rBCATc (Rattus norvegicus, UniProt P54690)
T1 construct: The supernatant was dialyzed with at least three changes of dialysis buffer; from tissue; host or cells: rat brain (high-speed supernatant of homogenate, dialyzed)
T1 sequence (P54690 1-411): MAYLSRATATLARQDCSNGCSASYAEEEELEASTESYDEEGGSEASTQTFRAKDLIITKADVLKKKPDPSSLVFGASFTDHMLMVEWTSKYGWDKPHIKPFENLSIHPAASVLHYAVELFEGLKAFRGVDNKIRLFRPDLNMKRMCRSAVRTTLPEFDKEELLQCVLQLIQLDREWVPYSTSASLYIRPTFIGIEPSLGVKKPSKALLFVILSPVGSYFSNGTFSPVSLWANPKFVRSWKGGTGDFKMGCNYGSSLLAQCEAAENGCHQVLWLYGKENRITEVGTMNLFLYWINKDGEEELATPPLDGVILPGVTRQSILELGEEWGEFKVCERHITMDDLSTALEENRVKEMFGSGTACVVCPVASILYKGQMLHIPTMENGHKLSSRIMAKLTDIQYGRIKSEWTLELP
Assay: Assay of BCAT ([14C] L-leucine transamination, rat brain supernatant enzyme)
Format: biochemical
Settings: 10 mM 2-oxoglutarate, pH 8.3, 10 min, 22 °C
Description: Enzyme preparation: Frozen rat brains were thawed on ice and minced into fine pieces. […] The samples were homogenized in Potters homogenizer (B. Bran Biotech International) at 500 rpm for ten strokes, followed by additional ten strokes at 800 rpm. The homogenates were centrifuged in Beckman J2-M1 centrifuge with rotor JA-20 at 19, 000 rpm for 1 hr. […] The resulting enzyme was stored at -80 °C for further assays.
The solutions for the reaction mixture were made in 10-fold concentrations. After 10 min incubation at room temperature (22 °C), the reaction was stopped by adding 100 µl of 15 mM p-nitrophenyl hydrazine in 2 M HCL. After a few minutes, 1 mL of a toluene-based scintillation liquid (4.5 g of PPO and 0.5 g ofbis-MSB in 1 liter of toluene) was added, the tube was capped and mixed thoroughly with a Vortex mixer. […] Six hundreds µl of organic layer from each tube was placed into scintillation vials, followed by adding 10 ml of scintillation cocktail for counting.

[1] = 25 µM [14C] L-leucine, read-out: rBCATc IC50

Structure (SMILES)	IC50 [1]	IC50 (rBCATc IC50, 25 µM [14C] L-leucine)
C[C@@H]1C[C@H](C)C[C@@](CO)(CC(=O)O)C1 [Example 50, cis-((3R, 5S)-1-Hydroxymethyl-3,5-dimethyl-cyclohexyl-acetic acid; hydrochloride salt]	842 µM	
CCC(C)CNCC1(CC(=O)O)CCCCC1 (centres unmarked) [Example 26, {1-[(2-Methyl-butylamino)-methyl]-cyclohexyl}-acetic acid; hydrochloride salt]	8590 µM	
CC1CCCCC1(CN)CC(=O)O (single isomer, unassigned) [Example 2, (1-Aminomethyl-2-methyl-cyclohexyl)-acetic acid hydrochloride]		1140 µM
CCCNC[C@@]1(CC(=O)O)C[C@H](C)C[C@H](C)C1 [Example 9, 1α,3β,5β-(3,5-Dimethyl-1-propylaminomethyl-cyclohexyl)-acetic acid; hydrochloride salt]	120 µM	
CN(Cc1ccccc1)CC1(CC(=O)O)CCCCC1 [Example 55, {1-[(Benzyl-methyl-amino)-methyl]-cycloheayl}-acetic acid; hydrochloride salt]	9240 µM	
O=C(O)CC1(CNCC2CC2)CCCCC1 [Example 29, {1-[(Cyclopropylmethyl-amino)-methyl]-cyclohexyl}-acetic acid hydrochloride salt]	391 µM	
CCCNCC1(CC(=O)O)C[C@H](C)C[C@H](C)C1 (stereo in doubt) [Example 62, ((3R, 5S)-3,5-Dimethyl-1-propylaminomethyl-cyclohexyl)-acetic acid; hydrochloride salt]	4220 µM	
C[C@@H]1C[C@H](C)CC(CNCC2CCCC2)(CC(=O)O)C1 (stereo partly drawn) [Example 45, {(3R, 5S)-1-[(Cyclopentylmethyl-amino)-methyl]-3,5-dimethylcyclohexyl}-acetic acid; hydrochloride salt]	1330 µM	
CC(CO)NCC1(CC(=O)O)C[C@H](C)C[C@H](C)C1 (stereo partly drawn) [Example 43, {(3R, 5S)-1-[(2-Hydroxy-1-methyl-ethylamino)-methyl]-3,5-dimethyl-cyclohexyl}-acetic acid; hydrochloride salt]	2080 µM	
C[C@H]1CC(CN)(CC(=O)O)C[C@@H]1C [Example 7, (+)-(trans)-(1-Aminomethyl-3,4-dimethyl-cyclopentyl)-acetic acid hydrochloride]	2170 µM	
CCCNCC1(CC(=O)O)CCCCC1 [Example 32, (1-Propylaminomethyl-cyclohexyl)-acetic acid hydrochloride salt]	243 µM	
O=C(O)CC1(CNCCCC(F)(F)F)CCCCC1 [Example 27, {1-[(4,4,4-Trifluoro-butylamino)-methyl]-cyclohexyl}-acetic acid; hydrochloride salt]	1550 µM	
CNC[C@@]1(CC(=O)O)C[C@H](C)C[C@H](C)C1 [Example 15, 1α,3β,5β-(3,5-Dimethyl-1-methylaminomethyl-cyclohexyl)-acetic acid; hydrochloride salt]	82 µM	
C[C@@H]1C[C@H](C)CC(CO)(CC(=O)O)C1 (stereo partly drawn) [Example 58, ((3R, 5S)-1-Hydroxymethyl-3,5-dimethyl-cyclohexyl)-acetic acid; sodium salt]	179 µM	
CC(CO)NCC1(CC(=O)O)CCCCC1 (centres unmarked) [Example 30, {1-[(2-Hydroxy-1-methyl-ethylamino)-methyl]-cyclohexyl}-acetic acid hydrochloride salt]	2250 µM	
CCCC1CCC(CN)(CC(=O)O)CC1 (centres unmarked) [Example 61, (1-Aminomethyl-4-propyl-cyclohexyl)-acetic acid; hydrochloric salt]	114 µM	
CC(C)NCC1(CC(=O)O)CCCCC1 [Example 33, [1-(Isopropylamino-methyl)-cyclohexyl]-acetic acid hydrochloride salt]	1020 µM	
C[C@@H]1C[C@H](C)C[C@](CN)(CC(=O)O)C1 [Example 8, 1α,3β,5β-(1-Aminomethyl-3,5-dimethyl-cyclohexyl)-acetic acid hydrochloride]	74 µM	
CC(C)CNCC1(CC(=O)O)CCCCC1 [Example 31, [1-(Isobutylamino-methyl)-cyclohexyl]-acetic acid hydrochloride salt]	908 µM	
C[C@@H]1CC(CN)(CC(=O)O)C[C@H]1C (racemic) [Example 4, (±)-(trans)-(1-Aminomethyl-3,4-dimethyl-cyclopentyl)-acetic acid hydrochloride]	2510 µM	
CNCC1(CC(=O)O)CCCCC1 [Example 54, (1-methylaminomethyl-cyclohexyl)-acetic acid; hydrochloride salt]	217 µM	

Structure (SMILES)	IC50 [1]	IC50 (rBCATc IC50, 25 µM [14C] L-leucine)
CCNCC1(CC(=O)O)CCCCC1 [Example 28, (1-Ethylaminomethyl-cyclohexyl)-acetic acid hydrochloride salt]	181 µM	
CC(C)(C)OC(=O)NCC1(CC(=O)O)CCCCC1 [Example 39, [1-(tert-Butoxycarbonylamino-methyl)-cyclohexyl]-acetic acid]	933 µM	
C[C@@H]1C[C@H](C)CC(CNC2CCCCC2)(CC(=O)O)C1 (stereo partly drawn) [Example 47, ((3R, 5S)-1-Cyclohexylaminomethyl-3,5-dimethyl-cyclohexyl)-acetic acid; hydrochloride salt]	15600 µM	
CC(=O)NCC1(CC(=O)O)CCCCC1 [Example 40, [1-(Acetylamino-methyl)-cyclohexyl]-acetic acid]	3800 µM	
CC(C)NC[C@@]1(CC(=O)O)C[C@H](C)C[C@H](C)C1 [Example 21, 1α,3β,5β-(1-(Isopropylamino-methyl)-3,5-dimethyl-cyclohexyl]-acetic acid hydrochloride salt]	169 µM	
CC1CC(C)CC(CC(=O)O)(CN(C)C)C1 (stereo not drawn) [Example 12, 1α,3β,5β-(1-Dimethylaminomethyl-3,5-dimethyl-cyclohexyl)-acetic acid; hydrochloride salt]	1490 µM	
C[C@@H]1C[C@H](C)CC(CC(=O)O)(CC(=O)O)C1 [Example 48, ((3R,5S)-1-Carboxymethyl-3,5-dimethyl-cyclohexyl)-acetic acid]	8530 µM	
C[C@@H]1C[C@H](C)C[C@](CNCc2ccccc2)(CC(=O)O)C1 [Example 11, 1α,3β,5β-(1-Benzylamino-methyl)-3,5-dimethyl-cyclohexyl]-acetic acid; hydrochloride salt]	1390 µM	
NCC1(CC(=O)O)CCCC1 [Example 23, 1-Aminomethyl-1-cyclopentane-acetic acid]	2120 µM	
O=C(O)CC1(CNC2CCCCC2)CCCCC1 [Example 34, (1-Cyclohexylaminomethyl-cyclohexyl)-acetic acid hydrochloride salt]	3220 µM	
NCC1(CC(=O)O)CCCC1 [Example 24, Sodium salt of 1-aminomethyl-1-cyclopentane-acetic acid]	942 µM	
CCNCC1(CC(=O)O)CC(C)CC(C)C1 (stereo not drawn) [Example 10, 1α,3β,5β-(1-Ethylaminomethyl-3,5-dimethyl-cyclohexyl)-acetic acid hydrochloride salt]	121 µM	
CC(=O)NC[C@@]1(CC(=O)O)C[C@H](C)C[C@H](C)C1 [Example 16, 1α,3β,5β-[1-(Acetylamino-methyl)-3,5-dimethyl-cyclohexyl]-acetic acid]	1320 µM	
NCC1(CC(=O)O)CCCCC1 [Example 22, 1-Aminomethyl-1-cyclohexane-acetic acid]	389 µM	
CN(C)CC1(CC(=O)O)CCCCC1 [Example 51, (1-Dimethylaminomethyl-cyclohexyl)-acetic acid; hydrochloride salt]	> 10000 µM	
COC(CNCC1(CC(=O)O)C[C@H](C)C[C@H](C)C1)OC (stereo partly drawn) [Example 44, {(3R, 5S)-1-[(2,2-Dimethoxy-ethylamino)-methyl]-3,5-dimethylcyclohexyl}-acetic acid; hydrochloride salt]	2730 µM	
CCNCC1(CC(=O)O)C[C@H](C)C[C@H](C)C1 (stereo in doubt) [Example 59, ((3R, 5S)-1-Ethylaminomethyl-3,5-dimethyl-cyclohexyl)-acetic acid; hydrochloride salt]	3370 µM	
C[C@@H]1C[C@H](C)C[C@@](CC(=O)O)(CN(C)Cc2ccccc2)C1 [Example 14, 1α,3β,5β-{1-[(Benzyl-methyl-amino)-methyl]-3,5-dimethylcyclohexyl}-acetic acid; hydrochloride salt]	8590 µM	
C[C@@H]1C[C@H](C)CC(CNC2CCC2)(CC(=O)O)C1 (stereo partly drawn) [Example 41, ((3R, 5S)-1-Cyclobutylaminomethyl-3,5-dimethyl-cyclohexyl)-acetic acid; hydrochloride salt]	363 µM	
COC(CNCC1(CC(=O)O)CCCCC1)OC [Example 53, {1-[2,2-Dimethoxy-ethylamino)-methyl]-cyclohexyl}-acetic acid; hydrochloride salt]	3340 µM	

— EP1157000B1 (Warner-Lambert Company LLC, priority 1999, dated 2001)
